Reference: patent US8889881B2, “Compound having skin-whitening, anti-oxidizing and PPAR activities and medical use therefor” (Pusan National University Industry —University Cooperation …, priority 2011, dated 2014)

Key:
PPAR gamma-LBD = target: T1, PPAR gamma-LBD (Homo sapiens, UniProt P37231); test: PPAR assay, PPARγ; type: binding; conditions: sample final concentration 100 μM; positive control rosiglitazone; FIGS. 7 and 8
T1 sequence (P37231 238-503 limits assumed): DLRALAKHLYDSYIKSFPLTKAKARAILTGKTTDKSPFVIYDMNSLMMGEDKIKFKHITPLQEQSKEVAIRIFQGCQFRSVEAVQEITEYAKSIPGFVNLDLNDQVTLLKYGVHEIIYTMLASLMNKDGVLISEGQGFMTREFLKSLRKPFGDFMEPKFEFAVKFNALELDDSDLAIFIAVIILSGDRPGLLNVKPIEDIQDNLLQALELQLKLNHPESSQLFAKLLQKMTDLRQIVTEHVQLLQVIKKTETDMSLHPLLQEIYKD

PPAR alpha-LBD = target: T2, PPAR alpha-LBD (Homo sapiens, UniProt Q07869); test: PPAR assay, PPARα; conditions: for PPARα activation (competitive activation rate), compared with fenofibrate: sample final concentration 100 μM, positive control fenofibrate, FIGS. 5 and 6; for simultaneous activation of PPARα and PPARγ: summary of the PPARα and PPARγ assays, sample 100 μM
T2 sequence (Q07869 239-466 limits assumed): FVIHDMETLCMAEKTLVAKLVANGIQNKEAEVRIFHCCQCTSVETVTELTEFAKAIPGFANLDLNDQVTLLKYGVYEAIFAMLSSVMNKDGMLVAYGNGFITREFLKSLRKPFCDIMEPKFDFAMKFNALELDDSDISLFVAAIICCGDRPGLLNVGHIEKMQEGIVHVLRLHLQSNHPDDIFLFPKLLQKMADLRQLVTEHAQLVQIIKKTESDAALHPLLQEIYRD

| melting point [°C] | simultaneous activation of PPARα and PPARγ (PPAR alpha-LBD) | Compound | PPARγ activation (competitive activation rate), compared with rosiglitazone (PPAR gamma-LBD) | PPARα activation (competitive activation rate), compared with fenofibrate (PPAR alpha-LBD) |
| --- | --- | --- | --- | --- |
| 135 to 137.2 | simultaneously activates PPARα and PPARγ | COc1ccc(-c2nc3ccccc3s2)cc1OC [Compound 20, 2-(3,4-dimethoxyphenyl)benzo[d]thiazole] | very excellent PPARγ activation agent compared to rosiglitazone | very excellent PPARα activation agent compared to fenofibrate |
| 149.5 to 151.1 | simultaneously activates PPARα and PPARγ | COc1cc(-c2nc3ccccc3s2)cc(OC)c1OC [Compound 24, 2-(3,4,5-trimethoxyphenyl)benzo[d]thiazole] | very excellent PPARγ activation agent compared to rosiglitazone | very excellent PPARα activation agent compared to fenofibrate |
| 153.5 to 156.1 | simultaneously activates PPARα and PPARγ | COc1cc(-c2nc3ccccc3s2)cc(OC)c1O [Compound 25, 4-(benzo[d]thiazol-2-yl)-2,6-dimethoxyphenol] | very excellent PPARγ activation agent compared to rosiglitazone | very excellent PPARα activation agent compared to fenofibrate |
| 187.2 to 188.9 | simultaneously activates PPARα and PPARγ | Oc1ccc(-c2nc3cc(C(F)(F)F)ccc3s2)cc1 [Compound 28, 4-(5-(trifluoromethyl)benzo[d]thiazol-2-yl)phenol] | very excellent PPARγ activation agent compared to rosiglitazone | very excellent PPARα activation agent compared to fenofibrate |
| 155.7 to 159.9 | simultaneously activates PPARα and PPARγ | COc1cc(-c2nc3cc(C(F)(F)F)ccc3s2)ccc1O [Compound 31, 2-methoxy-4-(5-(trifluoromethyl)benzo[d]thiazol-2-yl)phenol] | very excellent PPARγ activation agent compared to rosiglitazone | very excellent PPARα activation agent compared to fenofibrate |
| 128.8 to 130.1 |  | COc1ccc(-c2nc3cc(C(F)(F)F)ccc3s2)cc1 [Compound 34, 2-(4-methoxyphenyl)-5-(trifluoromethyl)benzo[d]thiazole] | very excellent PPARγ activation agent compared to rosiglitazone |  |
| 264.7 to 265.4 | simultaneously activates PPARα and PPARγ | COc1ccc(-c2nc3cc(C(=O)O)ccc3[nH]2)cc1 [Compound 63, 2-(4-methoxyphenyl)-1H-benzo[d]imidazole-5-carboxylic acid] | very excellent PPARγ activation agent compared to rosiglitazone | very excellent PPARα activation agent compared to fenofibrate |
|  | simultaneously activates PPARα and PPARγ | CC(C)(Oc1ccc(-c2nc3ccccc3s2)cc1)C(=O)O [Compound 97, 2-(4-(benzo[d]thiazol-2-yl)phenoxy)-2-methylpropanoic acid] | very excellent PPARγ activation agent compared to rosiglitazone | very excellent PPARα activation agent compared to fenofibrate |
|  | simultaneously activates PPARα and PPARγ | O=C(O)c1ccc2[nH]c(-c3ccc(OCc4ccccc4)cc3)nc2c1 [Compound 113, 2-(4-(benzyloxy)phenyl)-1H-benzo[d]imidazole-5-carboxylic acid] | very excellent PPARγ activation agent compared to rosiglitazone | very excellent PPARα activation agent compared to fenofibrate |

Further lines, the molecule ahead of its results:

| Compound | melting point [°C] | simultaneous activation of PPARα and PPARγ (PPAR alpha-LBD) | PPARγ activation (competitive activation rate), compared with rosiglitazone (PPAR gamma-LBD) | PPARα activation (competitive activation rate), compared with fenofibrate (PPAR alpha-LBD) |
| --- | --- | --- | --- | --- |
| CCOc1cc(-c2nc3cc(C(F)(F)F)ccc3s2)ccc1O [Compound 32, 2-ethoxy-4-(5-(trifluoromethyl)benzo[d]thiazol-2-yl)phenol] | 117 to 117.8 | simultaneously activates PPARα and PPARγ | very excellent PPARγ activation agent compared to rosiglitazone | very excellent PPARα activation agent compared to fenofibrate |
| COc1cc(-c2nc3cc(C(F)(F)F)ccc3s2)cc(OC)c1O [Compound 40, 2,6-dimethoxy-4-(5-(trifluoromethyl)benzo[d]thiazol-2-yl)phenol] | 220.6 to 222.6 | simultaneously activates PPARα and PPARγ | very excellent PPARγ activation agent compared to rosiglitazone | very excellent PPARα activation agent compared to fenofibrate |
| COc1ccc(-c2nc3ccccc3[nH]2)c(OC)c1 [Compound 52, 2-(2,4-dimethoxyphenyl)-1H-benzo[d]imidazole] |  | simultaneously activates PPARα and PPARγ | very excellent PPARγ activation agent compared to rosiglitazone | very excellent PPARα activation agent compared to fenofibrate |
| Oc1ccccc1-c1nc2ccccc2[nH]1 [Compound 53, 2-(1H-benzo[d]imidazol-2-yl)phenol] |  | simultaneously activates PPARα and PPARγ | very excellent PPARγ activation agent compared to rosiglitazone | very excellent PPARα activation agent compared to fenofibrate |
| O=C(O)c1ccc2[nH]c(-c3ccc(O)cc3O)nc2c1 [Compound 59, 2-(2,4-dihydroxyphenyl)-1H-benzo[d]imidazole-5-carboxylic acid] | > 300 | simultaneously activates PPARα and PPARγ | very excellent PPARγ activation agent compared to rosiglitazone | very excellent PPARα activation agent compared to fenofibrate |
| COc1ccc(-c2nc3cc(C(=O)O)ccc3[nH]2)cc1OC [Compound 64, 2-(3,4-dimethoxyphenyl)-1H-benzo[d]imidazole-5-carboxylic acid] |  | simultaneously activates PPARα and PPARγ | very excellent PPARγ activation agent compared to rosiglitazone | very excellent PPARα activation agent compared to fenofibrate |
| COc1ccc(-c2nc3cc(C(=O)O)ccc3[nH]2)c(OC)c1 [Compound 65, 2-(2,4-dimethoxyphenyl)-1H-benzo[d]imidazole-5-carboxylic acid] |  | simultaneously activates PPARα and PPARγ | very excellent PPARγ activation agent compared to rosiglitazone | very excellent PPARα activation agent compared to fenofibrate |
| O=C(O)c1ccc2[nH]c(-c3ccccc3O)nc2c1 [Compound 66, 2-(2-hydroxyphenyl)-1H-benzo[d]imidazole-5-carboxylic acid] |  | simultaneously activates PPARα and PPARγ | very excellent PPARγ activation agent compared to rosiglitazone | very excellent PPARα activation agent compared to fenofibrate |
| COc1cc(-c2nc3cc(C(=O)O)ccc3[nH]2)cc(OC)c1OC [Compound 67, 2-(3,4,5-trimethoxyphenyl)-1H-benzo[d]imidazole-5-carboxylic acid] |  | simultaneously activates PPARα and PPARγ | very excellent PPARγ activation agent compared to rosiglitazone | very excellent PPARα activation agent compared to fenofibrate |
| O=C(O)c1ccc2[nH]c(-c3ccc(O)c(Br)c3)nc2c1 [Compound 69, 2-(3-bromo-4-hydroxyphenyl)-1H-benzo[d]imidazole-5-carboxylic acid] |  | simultaneously activates PPARα and PPARγ | very excellent PPARγ activation agent compared to rosiglitazone | very excellent PPARα activation agent compared to fenofibrate |
| O=C(O)c1ccc2[nH]c(-c3cc(Br)c(O)c(Br)c3)nc2c1 [Compound 70, 2-(3,5-dibromo-4-hydroxyphenyl)-1H-benzo[d]imidazole-5-carboxylic acid] |  | simultaneously activates PPARα and PPARγ | very excellent PPARγ activation agent compared to rosiglitazone | very excellent PPARα activation agent compared to fenofibrate |
